Laboratory results published in patent publication EP4745137A1 (Gluetacs Therapeutics (Shanghai) Co., Ltd., priority 2023, dated 2025).

Experiments:
IKZF2 = target: T1, IKZF2 (Homo sapiens, UniProt Q96SW2+Q9UKS7); assay: Western-blot assay of substrate protein degradation in hPBMCs, IKZF2; assay type: cell-based; details: 24 hours of compound treatment, compounds tested at 50 nM and 500 nM (concentration of the table not stated)
T1 construct: endogenous in cells; host or cells: hPBMCs (Milecell Biotechnologies)

CAL-62 = assay: Tumor cell proliferation inhibition (CellTiter-Meiluncell Luminescent Cell Viability Assay), CAL-62; details: Homo sapiens, CAL-62, 96 h, read-out: inhibitory activity (IC50, nM) against tumor cells proliferation, CAL-62
[1] = test system: Human acute T lymphocytic leukemia cells (Molt-4); assay: Tumor cell proliferation inhibition (CellTiter-Meiluncell Luminescent Cell Viability Assay), Molt-4; details: MOLT-4, 96 h, read-out: inhibitory activity (IC50, nM) against tumor cells proliferation, Molt 4
MM.1R = assay: Tumor cell proliferation inhibition (CellTiter-Meiluncell Luminescent Cell Viability Assay), MM.1R; details: Homo sapiens, 96 h, read-out: inhibitory activity (IC50, nM) against tumor cells proliferation, MM.1R
Jurkat = assay: Tumor cell proliferation inhibition (CellTiter-Meiluncell Luminescent Cell Viability Assay), Jurkat; details: Homo sapiens, 96 h, read-out: inhibitory activity (IC50, nM) against tumor cells proliferation, Jurkat
IKZF3 = target: T2, IKZF3 (Homo sapiens, UniProt Q96SW2+Q9UKT9); assay: Western-blot assay of substrate protein degradation in hPBMCs, IKZF3; assay type: cell-based; details: 24 hours of compound treatment, compounds tested at 50 nM and 500 nM (concentration of the table not stated)
T2 construct: endogenous in cells; host or cells: hPBMCs (Milecell Biotechnologies)

IKZF1 = target: T3, IKZF1 (Homo sapiens, UniProt Q13422+Q96SW2); assay: Western-blot assay of substrate protein degradation in hPBMCs, IKZF1; assay type: cell-based; details: 24 hours of compound treatment, compounds tested at 50 nM and 500 nM (concentration of the table not stated)
T3 construct: endogenous in cells; host or cells: hPBMCs (Milecell Biotechnologies)

CCRF-CEM = assay: Tumor cell proliferation inhibition (CellTiter-Meiluncell Luminescent Cell Viability Assay), CCRF-CEM; details: Homo sapiens, 96 h, read-out: inhibitory activity (IC50, nM) against tumor cells proliferation, CCRF-CEM
Vcap = assay: Tumor cell proliferation inhibition (CellTiter-Meiluncell Luminescent Cell Viability Assay), Vcap; details: Homo sapiens, 96 h, read-out: inhibitory activity (IC50, nM) against tumor cells proliferation, Vcap
[2] = target: T4, human Cereblon WT GST-tagged protein (Homo sapiens, UniProt Q96SW2); assay: CRBN-binding affinity by HTRF (CEREBLON BINDING kit); details: HTRF inhibitory activity, CEREBLON BINDING kit; read-out: HTRF IC50
T4 construct: purchased CISBIO 64BDCRBNPEH

GSPT1 = target: T5, GSPT1 (Homo sapiens, UniProt P15170+Q96SW2); assay: Western-blot assay of substrate protein degradation in hPBMCs, GSPT1; assay type: cell-based; details: 24 hours of compound treatment, compounds tested at 50 nM and 500 nM (concentration of the table not stated)
T5 construct: endogenous in cells; host or cells: hPBMCs (Milecell Biotechnologies)

WEE1 = target: T6, WEE1 (Homo sapiens, UniProt P30291+Q96SW2); assay: Western-blot assay of substrate protein degradation in hPBMCs, WEE1; assay type: cell-based; details: 24 hours of compound treatment, compounds tested at 50 nM and 500 nM (concentration of the table not stated)
T6 construct: endogenous in cells; host or cells: hPBMCs (Milecell Biotechnologies)

CK1α = target: T7, CK1α (Homo sapiens, UniProt P48729+Q96SW2); assay: Western-blot assay of substrate protein degradation in hPBMCs, CK1α; assay type: cell-based; details: 24 hours of compound treatment, compounds tested at 50 nM and 500 nM (concentration of the table not stated)
T7 construct: endogenous in cells; host or cells: hPBMCs (Milecell Biotechnologies)

TMD8 = assay: Tumor cell proliferation inhibition (CellTiter-Meiluncell Luminescent Cell Viability Assay), TMD8; details: Homo sapiens, TMD8, 96 h, read-out: inhibitory activity (IC50, nM) against tumor cells proliferation, TMD8
NCI-H1975 = assay: Tumor cell proliferation inhibition (CellTiter-Meiluncell Luminescent Cell Viability Assay), NCI-H1975; details: Homo sapiens, NCI-H1975, 96 h, read-out: inhibitory activity (IC50, nM) against tumor cells proliferation, H1975
Description: The tumor cells used herein were cultured in a cell culture medium listed in table 2 at 37°C in an incubator with 5% CO2. Prior to experimentation, all cell lines used were correctly identified by STR profiling, and tested negative for mycoplasma contamination using a mycoplasma detection kit through routine screenings.
On the following day, the test compounds of the present disclosure were subjected to serial dilution. […] Subsequently, 0.5 µL of the test compound dilution was transferred into the 96-well plate containing the cells, with each well containing 100 µL of cell culture medium. […] Into the 96-well plate, the diluted test compounds and corresponding detection reagents were added, resulting in final test compound concentrations of 500 nM and 10 nM, respectively. The experimental procedure is described below using the diluted 2 µM test compound as an example.
After the cells were treated with the compounds of the present disclosure for a specified period (the treatment durations were shown in Table 3), the cell viability assay reagent was added to the culture medium according to the kit's instructions to determine cell viability. […] All controls were treated using the same procedure as the compounds of the present disclosure. The growth inhibition curves for the compounds of the present disclosure were plotted using Prism GraphPad software, and the IC50 values were calculated therefrom.

[3] = test system: Human breast cancer cells (MDA-MB-231); assay: Tumor cell proliferation inhibition (CellTiter-Meiluncell Luminescent Cell Viability Assay), MDA-MB-231; details: MDA-MB-231, 96 h, read-out: inhibitory activity (IC50, nM) against tumor cells proliferation, MDA-MB-231

T5 sequence (P15170 whole entry): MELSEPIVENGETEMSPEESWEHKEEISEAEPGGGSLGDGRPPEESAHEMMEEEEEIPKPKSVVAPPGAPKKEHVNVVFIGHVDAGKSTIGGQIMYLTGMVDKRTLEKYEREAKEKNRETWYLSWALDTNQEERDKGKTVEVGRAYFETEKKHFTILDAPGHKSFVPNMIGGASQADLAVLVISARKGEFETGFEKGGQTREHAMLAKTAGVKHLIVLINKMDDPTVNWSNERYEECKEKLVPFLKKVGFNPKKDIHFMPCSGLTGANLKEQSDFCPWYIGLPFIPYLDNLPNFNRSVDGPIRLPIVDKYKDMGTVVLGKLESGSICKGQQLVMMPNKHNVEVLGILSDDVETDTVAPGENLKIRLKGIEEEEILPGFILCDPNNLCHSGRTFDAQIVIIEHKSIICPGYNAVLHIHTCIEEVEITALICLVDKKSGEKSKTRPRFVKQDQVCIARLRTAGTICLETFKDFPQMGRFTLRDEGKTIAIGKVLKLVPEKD
T5 sequence (Q96SW2 whole entry): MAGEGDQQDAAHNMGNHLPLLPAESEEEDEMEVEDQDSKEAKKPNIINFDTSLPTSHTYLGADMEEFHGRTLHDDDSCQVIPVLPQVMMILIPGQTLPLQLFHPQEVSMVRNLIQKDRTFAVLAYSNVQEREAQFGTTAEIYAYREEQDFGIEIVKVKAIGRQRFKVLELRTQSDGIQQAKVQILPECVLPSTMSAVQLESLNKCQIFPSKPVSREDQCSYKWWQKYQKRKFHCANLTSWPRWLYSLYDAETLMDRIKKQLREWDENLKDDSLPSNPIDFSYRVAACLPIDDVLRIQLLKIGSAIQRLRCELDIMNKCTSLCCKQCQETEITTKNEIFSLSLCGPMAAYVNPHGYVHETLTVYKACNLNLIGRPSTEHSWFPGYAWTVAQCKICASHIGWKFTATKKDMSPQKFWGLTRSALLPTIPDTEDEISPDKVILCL
T5 sequence (Q16531 whole entry partner): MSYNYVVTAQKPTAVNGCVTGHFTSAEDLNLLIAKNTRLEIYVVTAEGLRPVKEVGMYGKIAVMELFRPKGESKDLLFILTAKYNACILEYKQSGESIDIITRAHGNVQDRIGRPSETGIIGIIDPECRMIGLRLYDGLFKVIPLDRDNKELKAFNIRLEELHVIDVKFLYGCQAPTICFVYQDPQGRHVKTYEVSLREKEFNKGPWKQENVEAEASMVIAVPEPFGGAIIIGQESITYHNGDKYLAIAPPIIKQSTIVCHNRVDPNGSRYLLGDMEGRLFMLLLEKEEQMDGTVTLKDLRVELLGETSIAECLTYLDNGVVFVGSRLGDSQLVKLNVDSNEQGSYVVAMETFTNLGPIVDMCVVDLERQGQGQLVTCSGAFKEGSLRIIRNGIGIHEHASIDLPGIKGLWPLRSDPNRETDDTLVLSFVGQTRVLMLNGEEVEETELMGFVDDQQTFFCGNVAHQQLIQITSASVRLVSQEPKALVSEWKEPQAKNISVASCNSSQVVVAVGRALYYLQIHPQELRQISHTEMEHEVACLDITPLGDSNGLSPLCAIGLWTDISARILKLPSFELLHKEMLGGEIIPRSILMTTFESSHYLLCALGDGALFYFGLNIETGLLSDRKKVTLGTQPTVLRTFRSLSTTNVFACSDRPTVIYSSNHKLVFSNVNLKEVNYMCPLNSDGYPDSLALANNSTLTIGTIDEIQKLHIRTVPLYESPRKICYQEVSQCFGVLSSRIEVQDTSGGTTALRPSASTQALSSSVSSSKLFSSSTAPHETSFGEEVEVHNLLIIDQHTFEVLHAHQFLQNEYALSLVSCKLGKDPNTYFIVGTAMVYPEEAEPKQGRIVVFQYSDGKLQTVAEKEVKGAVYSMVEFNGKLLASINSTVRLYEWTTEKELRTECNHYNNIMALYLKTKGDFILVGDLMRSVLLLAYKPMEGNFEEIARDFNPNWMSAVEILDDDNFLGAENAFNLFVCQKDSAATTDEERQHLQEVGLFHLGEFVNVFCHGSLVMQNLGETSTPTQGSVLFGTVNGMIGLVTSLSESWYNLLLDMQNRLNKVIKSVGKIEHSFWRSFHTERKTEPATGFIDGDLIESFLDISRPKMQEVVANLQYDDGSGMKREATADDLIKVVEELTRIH
T3 sequence (Q13422 whole entry): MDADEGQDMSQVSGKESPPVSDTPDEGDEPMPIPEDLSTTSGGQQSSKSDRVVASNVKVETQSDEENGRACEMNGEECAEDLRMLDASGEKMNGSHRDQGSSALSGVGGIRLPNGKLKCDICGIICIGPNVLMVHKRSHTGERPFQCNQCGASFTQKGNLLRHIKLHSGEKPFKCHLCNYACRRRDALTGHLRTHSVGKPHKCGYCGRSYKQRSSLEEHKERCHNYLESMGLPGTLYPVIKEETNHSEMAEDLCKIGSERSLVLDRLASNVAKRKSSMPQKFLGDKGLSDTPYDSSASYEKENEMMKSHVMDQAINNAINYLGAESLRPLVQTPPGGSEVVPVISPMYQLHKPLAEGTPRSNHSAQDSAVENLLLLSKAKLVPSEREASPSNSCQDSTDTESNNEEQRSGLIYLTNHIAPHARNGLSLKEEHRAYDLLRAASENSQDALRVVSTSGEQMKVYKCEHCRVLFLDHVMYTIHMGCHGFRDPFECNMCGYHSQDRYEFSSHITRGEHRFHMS
T3 sequence (Q96SW2 whole entry): as the sequence (Q96SW2 whole entry) above
T3 sequence (Q16531 whole entry partner): as the sequence (Q16531 whole entry partner) above
T2 sequence (Q9UKT9 whole entry): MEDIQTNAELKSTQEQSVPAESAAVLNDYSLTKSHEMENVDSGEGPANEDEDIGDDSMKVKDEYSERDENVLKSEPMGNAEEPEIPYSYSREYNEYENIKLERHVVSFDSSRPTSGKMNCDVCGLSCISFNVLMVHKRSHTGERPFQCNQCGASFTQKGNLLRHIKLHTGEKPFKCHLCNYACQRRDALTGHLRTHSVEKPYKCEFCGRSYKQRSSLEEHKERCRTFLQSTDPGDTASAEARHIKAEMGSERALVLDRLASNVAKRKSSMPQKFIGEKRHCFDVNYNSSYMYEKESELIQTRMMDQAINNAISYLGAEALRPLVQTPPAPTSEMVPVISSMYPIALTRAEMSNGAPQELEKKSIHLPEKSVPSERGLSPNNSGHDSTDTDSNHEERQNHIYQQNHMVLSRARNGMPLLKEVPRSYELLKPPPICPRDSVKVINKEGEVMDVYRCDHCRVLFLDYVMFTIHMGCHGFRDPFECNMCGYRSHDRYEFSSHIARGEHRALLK
T2 sequence (Q96SW2 whole entry): as the sequence (Q96SW2 whole entry) above
T2 sequence (Q16531 whole entry partner): as the sequence (Q16531 whole entry partner) above
T4 sequence (Q96SW2 whole entry): as the sequence (Q96SW2 whole entry) above
T6 sequence (P30291 whole entry): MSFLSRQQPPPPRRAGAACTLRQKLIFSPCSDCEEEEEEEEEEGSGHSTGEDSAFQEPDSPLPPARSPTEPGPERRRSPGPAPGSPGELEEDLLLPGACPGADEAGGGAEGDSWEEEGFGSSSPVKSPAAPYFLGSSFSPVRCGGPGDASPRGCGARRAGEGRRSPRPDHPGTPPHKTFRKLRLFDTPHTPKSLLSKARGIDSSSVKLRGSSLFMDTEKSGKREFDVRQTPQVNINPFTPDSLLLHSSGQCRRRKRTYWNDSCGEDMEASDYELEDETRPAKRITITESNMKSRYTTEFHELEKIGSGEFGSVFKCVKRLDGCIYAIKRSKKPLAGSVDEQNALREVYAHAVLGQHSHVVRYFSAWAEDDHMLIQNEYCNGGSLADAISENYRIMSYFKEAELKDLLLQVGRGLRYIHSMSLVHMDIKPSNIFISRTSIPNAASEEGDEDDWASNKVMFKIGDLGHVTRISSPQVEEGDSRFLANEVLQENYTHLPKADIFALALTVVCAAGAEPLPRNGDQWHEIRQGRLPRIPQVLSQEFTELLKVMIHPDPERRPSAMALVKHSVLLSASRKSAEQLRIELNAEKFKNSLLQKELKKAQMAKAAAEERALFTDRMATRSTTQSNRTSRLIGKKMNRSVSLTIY
T6 sequence (Q96SW2 whole entry): as the sequence (Q96SW2 whole entry) above
T6 sequence (Q16531 whole entry partner): as the sequence (Q16531 whole entry partner) above
T1 sequence (Q9UKS7 whole entry): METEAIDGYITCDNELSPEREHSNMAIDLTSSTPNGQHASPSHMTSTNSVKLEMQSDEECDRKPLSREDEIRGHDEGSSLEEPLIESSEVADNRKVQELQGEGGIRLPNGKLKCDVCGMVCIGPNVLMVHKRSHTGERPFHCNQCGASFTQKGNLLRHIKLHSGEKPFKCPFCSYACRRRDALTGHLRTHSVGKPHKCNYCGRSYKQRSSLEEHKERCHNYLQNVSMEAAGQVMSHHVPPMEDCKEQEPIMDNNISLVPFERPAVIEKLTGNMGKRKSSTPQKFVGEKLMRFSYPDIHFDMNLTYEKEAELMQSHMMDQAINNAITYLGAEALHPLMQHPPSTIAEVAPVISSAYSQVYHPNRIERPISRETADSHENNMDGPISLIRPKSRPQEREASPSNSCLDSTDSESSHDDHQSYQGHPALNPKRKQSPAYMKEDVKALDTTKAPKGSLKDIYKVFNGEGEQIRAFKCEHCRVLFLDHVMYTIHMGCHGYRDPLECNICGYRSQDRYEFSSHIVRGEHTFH
T1 sequence (Q96SW2 whole entry): as the sequence (Q96SW2 whole entry) above
T1 sequence (Q16531 whole entry partner): as the sequence (Q16531 whole entry partner) above

SMILES	IKZF2 substrate protein remaining % (IKZF2)	IC50 (CAL-62) [nM]	IC50 [1] [nM]	IC50 (MM.1R) [nM]	IC50 (Jurkat) [nM]	IKZF3 substrate protein remaining % (IKZF3)	IKZF 1 substrate protein remaining % (IKZF1)	IC50 (CCRF-CEM) [nM]	IC50 (Vcap) [nM]	IC50 [2] [nM]	GSPT1 substrate protein remaining % (GSPT1)	Weel substrate protein remaining % (WEE1)	CK1a substrate protein remaining % (CK1α)	IC50 (TMD8) [nM]	IC50 (NCI-H1975) [nM]	IC50 [3] [nM]
Cc1ccccc1N1CCN(Cc2ccc3c(c2)CN(C2CCC(=O)NC2=O)C3=O)CC1 (stereo not shown) [GT-04461, 3-(1-oxo-5-((4-(o-tolyl)piperazin-1-yl)methyl)isoindolin-2-yl)piperidine-2,6-dione]	A (0% ≤ substrate protein remaining % ≤ 80%)	50 to 100	10 to 50	10 to 50	10 to 50	A (0% ≤ substrate protein remaining % ≤ 80%)	A (0% ≤ substrate protein remaining % ≤ 80%)	10 to 50	100 to 500	1000 to 1500	A (0% ≤ substrate protein remaining % ≤ 80%)	A (0% ≤ substrate protein remaining % ≤ 80%)	B (80%< substrate protein remaining %≤ 100%)			
O=C1CCC(N2Cc3cc(CN4CCC(c5ccc(F)cc5)CC4)ccc3C2=O)C(=O)N1 (stereo not shown) [GT-04471, 3-(5-((4-(4-fluorophenyl)piperidin-1-yl)methyl)-1-oxoisoindolin-2-yl)piperidine-2,6-dione]	A (0% ≤ substrate protein remaining % ≤ 80%)	100 to 500	10 to 50	50 to 100	10 to 50	A (0% ≤ substrate protein remaining % ≤ 80%)	A (0% ≤ substrate protein remaining % ≤ 80%)	10 to 50	100 to 500	500 to 1000	A (0% ≤ substrate protein remaining % ≤ 80%)	A (0% ≤ substrate protein remaining % ≤ 80%)	B (80%< substrate protein remaining %≤ 100%)			
COc1ccccc1N1CCN(Cc2ccc3c(c2)CN(C2CCC(=O)NC2=O)C3=O)CC1 (stereo not shown) [GT-04490, 3-(5-((4-(2-methoxyphenyl)piperazin-1-yl)methyl)-1-oxoisoindolin-2-yl)piperidine-2,6-dione]	A (0% ≤ substrate protein remaining % ≤ 80%)	500 to 1000	100 to 500	100 to 500	50 to 100	B (80%< substrate protein remaining %≤ 100%)	B (80%< substrate protein remaining %≤ 100%)	50 to 100	500 to 1000	500 to 1000	A (0% ≤ substrate protein remaining % ≤ 80%)	B (80%< substrate protein remaining %≤ 100%)	A (0% ≤ substrate protein remaining % ≤ 80%)			
O=C1CCC(N2Cc3cc(CN4CC=C(c5nccc(Cl)c5Cl)CC4)ccc3C2=O)C(=O)N1 (stereo not shown) [GT-04570, 3-(5-((3,4-dichloro-3',6'-dihydro-[2,4'-bipyridin]-1'(2'H)-yl)methyl)-1-oxoisoindolin-2-yl)piperidine-2,6-dione]	A (0% ≤ substrate protein remaining % ≤ 80%)		1 to 5			A (0% ≤ substrate protein remaining % ≤ 80%)	A (0% ≤ substrate protein remaining % ≤ 80%)			500 to 1000	A (0% ≤ substrate protein remaining % ≤ 80%)	A (0% ≤ substrate protein remaining % ≤ 80%)	A (0% ≤ substrate protein remaining % ≤ 80%)	10 to 50	10 to 50	1 to 5
O=C1CCC(N2Cc3cc(CN4CCC(c5cccs5)CC4)ccc3C2=O)C(=O)N1 (stereo not shown) [GT-04571, 3-(1-oxo-5-((4-(thiophen-2-yl)piperidin-1-yl)methyl)isoindolin-2-yl)piperidine-2,6-dione]	A (0% ≤ substrate protein remaining % ≤ 80%)		5 to 10			A (0% ≤ substrate protein remaining % ≤ 80%)	A (0% ≤ substrate protein remaining % ≤ 80%)			1000 to 1500	A (0% ≤ substrate protein remaining % ≤ 80%)	A (0% ≤ substrate protein remaining % ≤ 80%)	A (0% ≤ substrate protein remaining % ≤ 80%)	100 to 500	50 to 100	10 to 50
Cc1ccc(C2=CCN(Cc3ccc4c(c3)CN(C3CCC(=O)NC3=O)C4=O)CC2)s1 (stereo not shown) [GT-04572, 3-(5-((4-(5-methylthiophen-2-yl)-3,6-dihydropyridin-1(2H)-yl)methyl)-1-oxoisoindolin-2-yl)piperidine-2,6-dione]	A (0% ≤ substrate protein remaining % ≤ 80%)		1 to 5			A (0% ≤ substrate protein remaining % ≤ 80%)	A (0% ≤ substrate protein remaining % ≤ 80%)			500 to 1000	A (0% ≤ substrate protein remaining % ≤ 80%)	A (0% ≤ substrate protein remaining % ≤ 80%)	A (0% ≤ substrate protein remaining % ≤ 80%)	10 to 50	10 to 50	10 to 50
O=C1CCC(N2Cc3cc(CN4CCN(c5c[nH]c6ncccc56)CC4)ccc3C2=O)C(=O)N1 (stereo not shown) [GT-04601, 3-(5-((4-(1H-pyrrolo[2,3-b]pyridin-3-yl)piperazin-1-yl)methyl)-1-oxoisoindolin-2-yl)piperidine-2,6-dione]	B (80%< substrate protein remaining %≤ 100%)		100 to 500			A (0% ≤ substrate protein remaining % ≤ 80%)	A (0% ≤ substrate protein remaining % ≤ 80%)			< 500	A (0% ≤ substrate protein remaining % ≤ 80%)	A (0% ≤ substrate protein remaining % ≤ 80%)	A (0% ≤ substrate protein remaining % ≤ 80%)	500 to 1000		500 to 1000
Cc1sc2ncnc(C3=CCN(Cc4ccc5c(c4)CN(C4CCC(=O)NC4=O)C5=O)CC3)c2c1C (stereo not shown) [GT-04727, 3-(5-((4-(5,6-dimethylthieno[2,3-d]pyrimidin-4-yl)-3,6-dihydropyridin-1(2H)-yl)methyl)-1-oxoisoindolin-2-yl)piperidine-2,6-dione]	B (80%< substrate protein remaining %≤ 100%)		10 to 50			A (0% ≤ substrate protein remaining % ≤ 80%)	A (0% ≤ substrate protein remaining % ≤ 80%)			< 500	A (0% ≤ substrate protein remaining % ≤ 80%)	A (0% ≤ substrate protein remaining % ≤ 80%)	A (0% ≤ substrate protein remaining % ≤ 80%)	500 to 1000		100 to 500
O=C1CCC(N2Cc3cc(CN4CCC(c5noc6cc(F)ccc56)CC4)c(F)cc3C2=O)C(=O)N1 (stereo not shown) [GT-04766, 3-(6-fluoro-5-((4-(6-fluorobenzo[d]isoxazol-3-yl)piperidin-1-yl)methyl)-1-oxoisoindolin-2-yl)piperidine-2,6-dione]			1 to 5							1500 to 1900				10 to 50	10 to 50	10 to 50
